In patent US20130172320A1, “PYRIDO [4,3-B] INDOLE AND PYRIDO [3,4-B] INDOLE DERIVATIVES AND METHODS OF USE” (priority 2010, published 2013):

Assays:
[1] = biological target: T1, human recombinant adrenergic α1D receptor (Homo sapiens, UniProt P25100); test: Adrenergic α1D radioligand binding ([3H]Prazosin); conditions: compound at 0.1 μM; read-out: Percentage inhibition of ligand binding, Adrenergic (0.1 μM) a1D
T1 construct: expressed in transfected cells; host or cells: human embryonic kidney (HEK-293) cells
T1 sequence (P25100 1-572): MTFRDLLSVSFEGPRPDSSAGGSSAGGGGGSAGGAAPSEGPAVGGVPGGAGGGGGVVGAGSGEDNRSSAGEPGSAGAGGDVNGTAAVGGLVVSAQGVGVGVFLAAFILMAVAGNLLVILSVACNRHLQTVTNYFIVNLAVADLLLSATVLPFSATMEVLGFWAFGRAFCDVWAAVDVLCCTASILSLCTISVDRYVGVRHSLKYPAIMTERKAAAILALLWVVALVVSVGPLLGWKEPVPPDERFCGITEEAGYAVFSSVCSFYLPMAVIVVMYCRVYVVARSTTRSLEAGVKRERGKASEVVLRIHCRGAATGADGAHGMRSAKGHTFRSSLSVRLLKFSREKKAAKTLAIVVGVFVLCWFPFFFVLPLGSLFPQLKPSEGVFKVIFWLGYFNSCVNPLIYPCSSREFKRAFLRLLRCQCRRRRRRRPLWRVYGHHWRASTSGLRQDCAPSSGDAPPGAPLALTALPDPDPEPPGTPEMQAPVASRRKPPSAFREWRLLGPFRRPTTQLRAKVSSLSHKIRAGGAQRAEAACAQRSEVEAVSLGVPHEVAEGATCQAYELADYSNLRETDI
Procedure: To evaluate in radioligand binding assays the activity of compounds of the invention, human recombinant adrenergic α1D receptor expressed in human embryonic kidney (HEK-293) cells (Kenny, B. et al, Br. J. Pharmacol. 115(6):981, 1995) in a 50 mM Tris-HCl buffer, pH 7.4, was used. Compounds of invention were incubated with 0.6 nM [^3H]Prazosin for 60 min at 25° C. Non-specific binding was estimated in the presence of 10 μM phentolamine. Receptor proteins were filtered and washed, the filters were then counted to determine [^3H]Prazosin specifically bound. Compounds were screened at 1 μM or lower, using 1% DMSO as vehicle. Biochemical assay results are presented as the percent inhibition of specific binding in Table 3.

[2] = biological target: T2, human recombinant serotonin (5-Hydroxytryptamine) 5-HT5A receptor (Homo sapiens, UniProt P47898); test: Serotonin 5-HT5A radioligand binding ([3H]LSD); conditions: compound at 0.1 μM; read-out: Percentage inhibition of ligand binding, Serotonin (0.1 μM) 5-HT5A
T2 construct: expressed in transfected cells; host or cells: Chinese hamster ovary (CHO) K1 cells
T2 sequence (P47898 whole entry): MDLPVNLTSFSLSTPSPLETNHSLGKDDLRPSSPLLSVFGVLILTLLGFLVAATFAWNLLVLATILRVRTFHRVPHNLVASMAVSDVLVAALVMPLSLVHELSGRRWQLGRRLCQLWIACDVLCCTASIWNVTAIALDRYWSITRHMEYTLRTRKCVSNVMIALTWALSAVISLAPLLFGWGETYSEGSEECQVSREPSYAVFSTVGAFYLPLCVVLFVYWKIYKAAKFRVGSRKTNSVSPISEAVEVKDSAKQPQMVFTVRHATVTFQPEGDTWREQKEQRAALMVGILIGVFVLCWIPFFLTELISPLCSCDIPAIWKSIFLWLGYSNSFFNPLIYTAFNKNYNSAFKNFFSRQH
Procedure: To evaluate in radioligand binding assays the activity of compounds of the invention, human recombinant serotonin (5-Hydroxytryptamine) 5-HT5A receptor expressed in Chinese hamster ovary (CHO) K1 cells (Rees, S. et al, FEBS Lett. 355:242, 1994) in a modified Tris-HCl buffer (50 mM Tris-HCl, pH 7.4, 10 mM MgCl2, 0.5 mM EDTA) was used. Compounds of the invention were incubated with 1.7 nM [^3H]Lysergic acid diethylamide (LSD) for 60 min at 37° C. Non-specific binding was estimated in the presence of 100 μM Serotonin (5-HT). Receptor proteins were filtered and washed, the filters were counted to determine [^3H]LSD specifically bound. Compounds were screened at 1 μM or lower, using 1% DMSO as vehicle. Biochemical assay results are presented as the percent inhibition of specific binding in Table 4.

[3] = biological target: T3, human recombinant adrenergic α2B receptor (Homo sapiens, UniProt P18089); test: Adrenergic α2B radioligand binding ([3H]Rauwolscine); conditions: compound at 0.1 μM; read-out: Percentage inhibition of ligand binding, Adrenergic (0.1 μM) a2B
T3 construct: expressed in transfected cells; host or cells: Chinese hamster ovary (CHO) K1 cells
T3 sequence (P18089 1-450): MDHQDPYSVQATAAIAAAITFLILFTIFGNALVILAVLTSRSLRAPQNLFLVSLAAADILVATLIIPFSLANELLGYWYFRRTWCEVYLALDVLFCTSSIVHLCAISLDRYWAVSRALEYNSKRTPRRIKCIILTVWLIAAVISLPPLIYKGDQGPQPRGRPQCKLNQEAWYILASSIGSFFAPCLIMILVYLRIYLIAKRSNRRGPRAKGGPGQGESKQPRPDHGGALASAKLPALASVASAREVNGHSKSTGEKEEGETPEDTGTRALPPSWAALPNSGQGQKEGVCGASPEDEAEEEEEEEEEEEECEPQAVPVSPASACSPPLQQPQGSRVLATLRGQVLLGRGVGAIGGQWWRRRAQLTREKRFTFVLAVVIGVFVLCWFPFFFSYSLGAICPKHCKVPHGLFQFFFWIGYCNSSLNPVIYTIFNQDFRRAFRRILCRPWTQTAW
Procedure: To evaluate in radioligand binding assays the activity of compounds of the invention, human recombinant adrenergic α2B receptor expressed in Chinese hamster ovary (CHO) K1 cells (Uhlen, S. et al, Eur. J. Pharmacol. 343(1):93, 1998) in a modified Tris-HCl buffer (50 mM Tris-HCl, pH 7.4, 12.5 mM MgCl2, 1 mM EDTA, 0.2% BSA) was used. Compounds of the invention were incubated with 2.5 nM [^3H]Rauwolscine for 60 min at 25° C. Non-specific binding was estimated in the presence of 10 μM Prozosin. Receptor proteins were filtered and washed, the filters were then counted to determine [^3H]Rauwolscine specifically bound. Compounds were screened at 1 μM or lower, using 1% DMSO as vehicle. Biochemical assay results are presented as the percent inhibition of specific binding in Table 3.

[4] = biological target: human recombinant serotonin (5-Hydroxytryptamine) 5-HT7 receptor (Homo sapiens, UniProt P34969); test: Serotonin 5-HT7 radioligand binding ([3H]LSD); conditions: compound at 0.1 μM; read-out: Percentage inhibition of ligand binding, Serotonin (0.1 μM) 5-HT7
human recombinant serotonin (5-Hydroxytryptamine) 5-HT7 receptor, sequence (P34969 whole entry): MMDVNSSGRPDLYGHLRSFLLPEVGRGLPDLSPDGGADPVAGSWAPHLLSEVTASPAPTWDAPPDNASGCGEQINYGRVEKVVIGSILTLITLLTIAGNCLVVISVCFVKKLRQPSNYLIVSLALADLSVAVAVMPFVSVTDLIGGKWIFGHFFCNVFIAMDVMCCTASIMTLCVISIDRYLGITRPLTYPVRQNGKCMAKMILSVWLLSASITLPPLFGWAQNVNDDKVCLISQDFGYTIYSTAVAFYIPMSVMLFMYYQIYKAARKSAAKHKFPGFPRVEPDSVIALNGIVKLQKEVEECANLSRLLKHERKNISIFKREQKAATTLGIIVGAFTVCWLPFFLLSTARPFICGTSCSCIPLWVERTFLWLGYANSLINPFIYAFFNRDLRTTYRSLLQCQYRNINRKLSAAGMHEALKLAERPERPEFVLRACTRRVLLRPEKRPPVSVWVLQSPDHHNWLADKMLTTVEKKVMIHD
Procedure: To evaluate in radioligand binding assays the activity of compounds of the invention, human recombinant serotonin (5-Hydroxytryptamine) 5-HT7 receptor expressed in Chinese hamster ovary (CHO) cells (Roth, B. et al, J. Pharmacol. Exp. Ther. 268:1403, 1994; Shen, Y. et al, J. Biol. Chem. 268:18200, 1993) in a modified Tris-HCl buffer (50 mM Tris-HCl, pH 7.4, 10 mM MgCl2, 0.5 mM EDTA) was used. Compounds of invention were incubated with 5.5 nM [^3H] Lysergic acid diethylamide (LSD) for 2 h at 25° C. Non-specific binding was estimated in the presence of 10 μM Serotonin (5-HT). Receptor proteins were filtered and washed, the filters were then counted to determine [^3H]LSD specifically bound. Compounds were screened at 1 μM or lower, using 1% DMSO as vehicle. Biochemical assay results are presented as the percent inhibition of specific binding in Table 4.

Row | Compound | inhibition at 0.1 µM [1] | inhibition at 0.1 µM [2] | inhibition at 0.1 µM [3] | inhibition at 0.1 µM [4]
1 | C#CCC1(C)CN(C)Cc2c1n(C)c1ccc(C)cc21 (centres unmarked) [Compound 47, 2,4,5,8-tetramethyl-4-(prop-2-ynyl)-2,3,4,5-tetrahydro-1H-pyrido[4,3-b]indole] | 10% | 34% | 32% | 13%
2 | Cc1ccc2c(c1)c1c(n2C)C(C)(CCc2nc(-c3ccccc3)cs2)CN(C)C1 (centres unmarked) [Compound 48] | 13% | -3% | -12% | 17%
